Data reported in article PMC8375990, “The flavin monooxygenase Bs3 triggers cell death in plants, impairs growth in yeast and produces H2O2 in vitro” (PLoS ONE, 2021).

Assays:
Bs3 [1] = target: T1, Bs3 (Capsicum annuum, UniProt A8TVP6); test: UV-vis spectrum of purified protein; assay type: binding; settings: FAD added to lysis buffer; co-purified
T1 construct: gene T459_32270; Gateway recombination site and the two N-terminal methionines deleted
T1 sequence (A8TVP6 3-342): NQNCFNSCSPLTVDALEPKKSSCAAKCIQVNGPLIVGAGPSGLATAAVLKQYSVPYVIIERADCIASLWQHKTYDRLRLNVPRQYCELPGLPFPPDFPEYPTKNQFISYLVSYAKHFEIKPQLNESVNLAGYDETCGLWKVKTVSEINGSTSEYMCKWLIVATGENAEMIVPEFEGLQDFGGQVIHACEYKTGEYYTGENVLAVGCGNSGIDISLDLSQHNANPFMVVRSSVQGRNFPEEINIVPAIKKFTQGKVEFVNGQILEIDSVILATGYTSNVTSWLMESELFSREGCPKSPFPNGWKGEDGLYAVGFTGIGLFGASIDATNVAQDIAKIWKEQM

Bs3 [2] = target: T2, Bs3 (Capsicum annuum, UniProt A8TVP6, S211A); test: UV-vis spectrum of purified protein; assay type: binding; settings: FAD added to lysis buffer; co-purified
T2 construct: gene T459_32270; Gateway recombination site and the two N-terminal methionines deleted

Bs3 [3] = target: T1, Bs3; test: NADPH oxidation, decrease of absorbance at […] nm; assay type: biochemical

T2 sequence (A8TVP6 entry or part of it S211A): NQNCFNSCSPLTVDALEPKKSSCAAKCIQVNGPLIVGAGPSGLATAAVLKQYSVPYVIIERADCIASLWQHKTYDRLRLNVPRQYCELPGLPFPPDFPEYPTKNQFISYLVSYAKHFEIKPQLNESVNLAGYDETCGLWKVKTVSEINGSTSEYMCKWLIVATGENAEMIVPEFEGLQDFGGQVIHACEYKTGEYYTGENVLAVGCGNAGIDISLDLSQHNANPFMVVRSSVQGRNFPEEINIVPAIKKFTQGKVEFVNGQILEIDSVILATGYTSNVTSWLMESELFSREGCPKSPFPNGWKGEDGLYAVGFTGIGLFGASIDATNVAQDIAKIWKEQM

SMILES | UV-vis spectrum of purified protein (Bs3 [1]) | UV-vis spectrum of purified protein (Bs3 [2]) | inhibition at 50 µM (Bs3 [3])
Cc1cc2nc3c(=O)[nH]c(=O)nc-3n(C[C@H](O)[C@H](O)[C@H](O)COP(=O)(O)OP(=O)(O)OC[C@H]3O[C@@H](n4cnc5c(N)ncnc54)[C@H](O)[C@@H]3O)c2cc1C [FAD] | purified Bs3 and Bs3S211A proteins were bright yellow and the UV-vis spectra show characteristic peaks | purified Bs3 and Bs3S211A proteins were bright yellow and the UV-vis spectra show characteristic peaks | 
Cn1cc[nH]c1=S [methimazole] |  |  | 79%
Sc1nnc(-c2ccc(Cl)cc2)[nH]1 [yucasin] |  |  | 95%
